This note sets out measurements from patent publication US20220064238A1, “Methods And Compositions For Modifying Transcription Factor Activity by Targeting The Human Mediator Complex Using Cell Penetrating Memetic Peptides And Methods of Treating Cancer Using The Same” (The Regents of the University of Colorado, a body corporate, priority 2020, published 2022).

Bridge positions count the residues as written; N and C are the ends. Square brackets hold non-standard residues; d marks the D form. Peptide text beside a SMILES is read from it. PEG6 = NCCOCCOCCOCCOCCOCCOCCC(=O)O; R8 = C=CCCCCCC[C@@](C)(N)C(=O)O; S5 = C=CCCC[C@](C)(N)C(=O)O

The experiment has as its system HCT116 cells. Put plainly: RNA-Seq in HCT116 cells, non-p53 genes / genome-wide transcription. It counts as cell-based, human. The following applies: DMSO control cells, no Nutlin. From the text: An expectation of our experimental strategy was that the bivalent peptide, which was designed based upon p53AD structure, would selectively block p53 function. […] RNA-Seq experiments in HCT116 cells represented a more rigorous test for selectivity. HCT116 cells express hundreds of sequence-specific, DNA-binding TFs, including high level expression of TFs that define the cell lineage. For HCT116 cells, these TFs include SREBF1, ELF3, JUNB, NR2F1, and MYC. To assess the general impact of the bivalent peptide on pol II transcription, we compared RNA-Seq data from DMSO control cells (i.e. no Nutlin treatment) in the presence/absence of bivalent peptide.
Electroporation of bivalent peptide into HCT116 cells (RNA-Seq experiment 1): Two 6-well plates (HCT116 cells) were grown to about 80% confluency. Cells were then trypsinized, washed with PBS, and resuspended in 150 μL Neon Buffer R. The cells were then split into two groups: No peptide and 10 μM peptide. The cells were then drawn into a 10 μL Neon pipet tip, electroporated and ejected into 2 mL of McCoy's 5A media without antibiotic. For each experiment, two cell electroporation aliquots were added to media containing either 0.1% DMSO (control) or 10 μM Nutlin-3a (in DMSO, to a final concentration of 0.1%). […]

For `CC[C@H](C)[C@H](NC(=O)[C@H](CC(=O)O)NC(=O)[C@H](CC(=O)O)NC(=O)[C@@H]1CCCN1C(=O)[C@H](CO)NC(=O)[C@H](CC(C)C)NC(=O)CCOCCOCCOCCOCCOCCOCCNC(=O)[C@H](CCCNC(=N)N)NC(=O)[C@H](CCCNC(=N)N)NC(=O)[C@]1(C)CCCC=CCCCCCC[C@@](C)(NC(=O)[C@H](Cc2ccccc2)NC(=O)[C@H](CCCNC(=N)N)NC(=O)[C@H](CCC(=O)O)NC(=O)[C@H](CCC(N)=O)NC(=O)[C@H](CO)NC(=O)[C@H](CCCNC(=N)N)NC(C)=O)C(=O)N[C@@H](CC(=O)O)C(=O)N[C@@H](CC(C)C)C(=O)N[C@@H](Cc2c[nH]c3ccccc23)C(=O)N[C@@H](CCCCN)C(=O)N[C@@H](CCCNC(=N)N)C(=O)N[C@@H](CC(C)C)C(=O)N1)C(=O)N[C@@H](CCC(=O)O)C(=O)N[C@@H](CCC(N)=O)C(=O)N[C@@H](Cc1c[nH]c2ccccc12)C(=O)N[C@@H](Cc1ccccc1)C(=O)N[C@H](C(=O)N[C@@H](CCC(=O)O)C(=O)N[C@@H](CC(=O)O)C(N)=O)[C@@H](C)O` [bivalent peptide] (Ac-RSQERF[R8]DLWKRL[S5]RR[PEG6]LSPDDIEQWFTED-NH2; staple 7-14; N-terminus assumed), the “effect on pol II transcription genome-wide” value is “minor effect on pol II transcription”.
